Measurements as given in ChEMBL document CHEMBL5104090, “Recent advances in the medicinal chemistry of carbonic anhydrase inhibitors” (Eur J Med Chem, 2021).
Values belong to the compound of their own block, whether it stands above or below them.

Columns and labels:
Carbonic anhydrase 1 [1] = molecular target: T1, Carbonic anhydrase 1 (Homo sapiens, UniProt P00915)
Carbonic anhydrase 2 [2] = molecular target: T2, Carbonic anhydrase 2 (Homo sapiens, UniProt P00918)
in vitro [3] = settings: human, corneal epithelial cell
Description: Cytotoxicity against human Corneal epithelial cell assessed as cell growth inhibition at 1 % measured after 96 hrs by MTT assay relative to control

Ca9-22 = assay: cells; type: functional; settings: Homo sapiens, time 48 hrs
Description: Cytotoxicity against human Ca9-22 cells assessed as cell growth inhibition measured after 48 hrs by MTT assay

HSC-2 = assay: cells; type: functional; settings: Homo sapiens, time 48 hrs
Description: Cytotoxicity against human HSC-2 cells assessed as cell growth inhibition measured after 48 hrs by MTT assay

Carbonic anhydrase 2 [4] = molecular target: T2, Carbonic anhydrase 2; remark: listed apart in the source
Carbonic anhydrase 1 [5] = molecular target: T1, Carbonic anhydrase 1; remark: listed apart in the source
Carbonic anhydrase 9 = Carbonic anhydrase 9 (Homo sapiens, UniProt Q16790)
Carbonic anhydrase 12 = Carbonic anhydrase 12 (Homo sapiens, UniProt O43570)
in vitro [6] = settings: human
Description: Selectivity index, ratio of CC50 for cytotoxicity against HGF cells to CC50 for cytotoxicity against human Ca9-22 cells by MTT method

in vitro [7] = settings: human; remark: listed apart in the source
Description: Selectivity index, ratio of CC50 for cytotoxicity against HPLF cells to CC50 for cytotoxicity against human Ca9-22 cells by MTT method

in vitro [8] = settings: human; remark: listed apart in the source
Description: Selectivity index, ratio of CC50 for cytotoxicity against HGF cells to CC50 for cytotoxicity against human HSC-2 cells by MTT method

in vitro [9] = settings: human; remark: listed apart in the source
Description: Selectivity index, ratio of CC50 for cytotoxicity against HPLF cells to CC50 for cytotoxicity against human HSC-2 cells by MTT method

Carbonic anhydrase 4 = Carbonic anhydrase 4 (Homo sapiens, UniProt P22748)
[10] = molecular target: Carbonic anhydrase 5A, mitochondrial (Homo sapiens, UniProt P35218)
Carbonic anhydrase 1 [11] = molecular target: T1, Carbonic anhydrase 1; remark: listed apart in the source
Carbonic anhydrase 2 [12] = molecular target: T2, Carbonic anhydrase 2; remark: listed apart in the source
Acetylcholinesterase = Acetylcholinesterase (Homo sapiens, UniProt P22303)
Carbonic anhydrase 1 [13] = molecular target: T1, Carbonic anhydrase 1; remark: listed apart in the source
Carbonic anhydrase 2 [14] = molecular target: T2, Carbonic anhydrase 2; remark: listed apart in the source

T1 sequence (P00915 whole entry): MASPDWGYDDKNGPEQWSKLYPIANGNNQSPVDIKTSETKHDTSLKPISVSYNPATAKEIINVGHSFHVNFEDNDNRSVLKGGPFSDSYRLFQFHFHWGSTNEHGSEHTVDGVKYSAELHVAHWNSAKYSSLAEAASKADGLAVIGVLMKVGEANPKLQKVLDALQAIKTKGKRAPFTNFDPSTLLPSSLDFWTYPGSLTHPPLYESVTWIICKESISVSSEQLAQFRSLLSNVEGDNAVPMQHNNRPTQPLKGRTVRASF
Sequence of Carbonic anhydrase 12 (O43570 whole entry): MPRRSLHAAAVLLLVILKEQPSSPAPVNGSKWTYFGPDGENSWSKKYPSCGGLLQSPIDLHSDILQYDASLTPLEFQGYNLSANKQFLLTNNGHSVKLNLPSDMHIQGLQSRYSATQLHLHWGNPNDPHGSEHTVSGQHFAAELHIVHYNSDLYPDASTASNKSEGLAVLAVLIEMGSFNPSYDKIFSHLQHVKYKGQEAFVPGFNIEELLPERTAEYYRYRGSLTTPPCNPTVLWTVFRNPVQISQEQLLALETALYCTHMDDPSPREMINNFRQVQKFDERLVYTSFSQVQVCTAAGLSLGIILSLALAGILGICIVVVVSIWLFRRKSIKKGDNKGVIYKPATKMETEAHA
Sequence of Carbonic anhydrase 5A, mitochondrial (P35218 whole entry): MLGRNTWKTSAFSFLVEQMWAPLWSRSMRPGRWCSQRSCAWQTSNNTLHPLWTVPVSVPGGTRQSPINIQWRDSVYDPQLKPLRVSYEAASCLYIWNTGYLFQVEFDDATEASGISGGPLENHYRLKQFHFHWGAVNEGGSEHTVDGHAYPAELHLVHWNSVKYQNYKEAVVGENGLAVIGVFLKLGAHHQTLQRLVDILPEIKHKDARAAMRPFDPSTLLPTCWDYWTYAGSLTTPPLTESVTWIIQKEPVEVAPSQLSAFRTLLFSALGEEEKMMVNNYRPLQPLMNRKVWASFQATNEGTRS
Sequence of Acetylcholinesterase (P22303 whole entry): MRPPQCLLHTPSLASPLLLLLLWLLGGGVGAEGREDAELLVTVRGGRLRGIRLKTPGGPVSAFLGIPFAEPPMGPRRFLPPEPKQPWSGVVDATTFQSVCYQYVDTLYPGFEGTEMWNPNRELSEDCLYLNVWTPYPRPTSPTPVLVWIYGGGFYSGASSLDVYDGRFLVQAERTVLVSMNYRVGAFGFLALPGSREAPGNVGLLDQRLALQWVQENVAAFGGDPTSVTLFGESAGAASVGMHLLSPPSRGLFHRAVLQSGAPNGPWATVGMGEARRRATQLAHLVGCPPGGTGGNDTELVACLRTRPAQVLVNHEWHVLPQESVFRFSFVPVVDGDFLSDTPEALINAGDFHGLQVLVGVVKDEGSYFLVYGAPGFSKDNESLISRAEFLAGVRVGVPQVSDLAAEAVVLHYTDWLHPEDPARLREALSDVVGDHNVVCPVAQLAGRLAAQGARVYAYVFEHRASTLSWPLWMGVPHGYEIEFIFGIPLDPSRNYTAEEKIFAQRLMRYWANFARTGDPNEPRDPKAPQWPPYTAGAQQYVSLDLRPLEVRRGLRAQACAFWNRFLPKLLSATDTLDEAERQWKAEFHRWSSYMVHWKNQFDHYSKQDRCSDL
Sequence of Carbonic anhydrase 4 (P22748 whole entry): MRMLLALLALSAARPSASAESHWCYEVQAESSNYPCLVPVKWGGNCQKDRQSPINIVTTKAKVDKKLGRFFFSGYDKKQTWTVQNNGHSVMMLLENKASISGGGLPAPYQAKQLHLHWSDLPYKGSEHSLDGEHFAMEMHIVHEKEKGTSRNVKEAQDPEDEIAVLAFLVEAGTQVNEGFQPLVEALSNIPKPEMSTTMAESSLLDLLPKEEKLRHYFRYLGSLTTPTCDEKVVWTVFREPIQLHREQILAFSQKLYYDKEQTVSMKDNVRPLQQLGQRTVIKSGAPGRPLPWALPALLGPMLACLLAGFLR

SMILES: COc1cc(C2CC(c3ccc(F)cc3)=NN2c2ccc(S(N)(=O)=O)cc2)cc(OC)c1OC (configuration not stated)
- CC50 (Ca9-22): 6300 nM
- CC50 (HSC-2): 7300 nM
- Ki (Carbonic anhydrase 2 [4]): 0.089 nM
- Ki (Carbonic anhydrase 1 [5]): > 230 nM
- Ki (Carbonic anhydrase 9): > 44 nM
- Ki (Carbonic anhydrase 12): > 9 nM
- selectivity ratio (in vitro [6]): 1.1
- selectivity ratio (in vitro [7]): 1.1
- selectivity ratio (in vitro [8]): 1.1
- selectivity ratio (in vitro [9]): 1.1

SMILES: CC(C)[C@@H](NC(=O)OCc1ccccc1)C(=O)NCCc1ccc(S(N)(=O)=O)cc1
- Ki [10]: 58.7 nM

SMILES: NS(=O)(=O)c1ccc(N2N=C(c3cccs3)CC2c2ccc(Br)cc2)cc1 (configuration not stated)
- Ki (Carbonic anhydrase 1 [11]): 25.6 nM
- Ki (Carbonic anhydrase 2 [12]): 37.3 nM
- Ki (Acetylcholinesterase): 80.6 nM

SMILES: O=C1C(=O)N(CN2CCOCC2)c2ccccc21
- Ki (Carbonic anhydrase 1 [13]): 8.57 nM
- Ki (Carbonic anhydrase 2 [14]): 5.02 nM

The next lines start with the values.

- IC50 (Carbonic anhydrase 1 [1]): 1800 nM
- Ki (Carbonic anhydrase 2 [2]): 0.009 nM
- inhibition at 96 h, 1 % (in vitro [3]): 74%
SMILES: COC(=O)[C@H]1O[C@@H](O)[C@H](O)[C@@H](O)[C@@]1(O)S(=O)(=O)Nc1ccccc1C(N)=O

- Ki (Carbonic anhydrase 4): 8.9 nM
SMILES: COc1cc(S(N)(=O)=O)ccc1-c1nc(-c2cccc(F)c2)no1

- Ki (Carbonic anhydrase 2 [2]): 0.009 nM
- inhibition at 96 h, 1 % (in vitro [3]): 74%
SMILES: NS(=O)(=O)c1ccc(C(=O)N[C@@H]2O[C@H](CO)[C@@H](O)[C@H](O)[C@@H]2O)cc1

- Ki (Carbonic anhydrase 1 [13]): 8.57 nM
- Ki (Carbonic anhydrase 2 [14]): 5.02 nM
SMILES: CN1CCN(CN2C(=O)C(=O)c3ccccc32)CC1

- inhibition at 96 h, 1 % (in vitro [3]): 74%
SMILES: NS(=O)(=O)c1ccc(C(=O)N[C@@H]2OC[C@@H](O)[C@H](O)[C@H]2O)cc1

- IC50 (Carbonic anhydrase 1 [1]): 1800 nM
- Ki (Carbonic anhydrase 2 [2]): 0.009 nM
SMILES: C[C@@H]1O[C@H](NC(=O)c2ccc(S(N)(=O)=O)cc2)[C@H](O)[C@H](O)[C@H]1O
